18 molecules from ChEMBL document CHEMBL1201862, “PubChem BioAssay data set” (2004) can be followed below.

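Dose response: 5 concentrations. Exposure: 48 h. Format: 96-well plates. Endpoint: linear interpolation; highest concentration if not reached. Abbreviation: GI50, concentration required for 50% inhibition of growth.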 Activity calls are given as the source filed them. No stated cut-off is given here; in the data, active = GI50 up to about 1.1 µM and inactive = higher. A value given as a limit tells only on which side of the number the result lay.

Some test systems named below: KM-20L2; XF498; LXFL 529; HOP-18; M19-MEL; DMS-114; DMS-273; SNB-78; RXF 631.
What all share (experiment): NCI anticancer screen, dose series, 48 h

Consider `C=CC(=O)NCNC(=O)C=C`, for which the GI50 with KM-20L2, with XF498, in the assay with LXFL 529, in the assay with HOP-18, in the assay with M19-MEL and in the assay with DMS-114 was > 100 µM (inactive) each time. Further, the GI50 in the assay on DMS-273 was > 100 µM (inactive).

Consider `Cc1cc(Cl)ccc1NC(=O)C(=O)Cc1ccc([N+](=O)[O-])c([N+](=O)[O-])c1CC(=O)C(=O)Nc1ccc(Cl)cc1C`, for which the GI50 with KM-20L2, with SNB-78, in the assay on XF498, with LXFL 529, with HOP-18 and with M19-MEL was > 100 µM (inactive) throughout. In addition, the GI50 was 60.4 µM (inactive) in the assay on DMS-114 and > 100 µM (inactive) with DMS-273.

Regarding `C=C(C)CCN[Si](c1ccccc1)(c1ccccc1)C(C)(C)C`, the GI50 with KM-20L2 was 17.9 µM (inactive); with SNB-78, 25.1 µM (inactive); in the assay with XF498, 24.5 µM (inactive); in the assay on HOP-18, 17.2 µM (inactive); with M19-MEL it was 20.5 µM (inactive); in the assay with DMS-114, 21.7 µM (inactive). Moreover, the GI50 in the assay on DMS-273 was 18.8 µM (inactive); in the assay on RXF 631, 20.2 µM (inactive).

As to `Cn1c2c(c3ccccc31)CCN(CCN1CCN(c3ccccc3)CC1)C2=O`, the GI50 with KM-20L2 was > 100 µM (inactive); in the assay with XF498, 22.2 µM (inactive); in the assay on LXFL 529, > 100 µM (inactive); with HOP-18 it was 55 µM (inactive); with DMS-114 it was > 100 µM (inactive); with DMS-273 it was > 100 µM (inactive). Moreover, the GI50 in the assay with RXF 631 is > 100 µM (inactive).

Take `CCCCCCCCCCCCC(=O)OC(c1cnco1)c1nc(C(O)CC(O)C(O)C(C)O)co1` (stereo unspecified): the GI50 in the assay with KM-20L2 was 1.23 µM (inactive); in the assay on XF498 it was 0.627 µM (active); in the assay on LXFL 529 it was 0.238 µM (active); in the assay on HOP-18 it was 3.48 µM (inactive); in the assay with M19-MEL, 0.78 µM (active); with DMS-114 it was 0.18 µM (active). Further, the GI50 with DMS-273 is 0.104 µM (active).

`CN1c2ccccc2N(C(=O)c2ccccc2)C(CC(=O)O)c2cccn21` (stereo unspecified): the GI50 in the assay with KM-20L2, in the assay with XF498, in the assay with LXFL 529, in the assay with HOP-18, in the assay with M19-MEL and in the assay with DMS-114 was > 100 µM (inactive) throughout. The GI50 in the assay with DMS-273 and in the assay with RXF 631 was > 100 µM (inactive) each time.

For the molecule `C=C1CC(C/C=C(\C)CC2CC(=C)C(=O)O2)OC1=O` (stereo unspecified), the GI50 in the assay with KM-20L2, in the assay with SNB-78, in the assay on XF498, in the assay on LXFL 529, in the assay with HOP-18 and with M19-MEL was > 100 µM (inactive) in each case. Moreover, the GI50 in the assay on DMS-114, in the assay on DMS-273 and in the assay with RXF 631 was > 100 µM (inactive) throughout.

Consider `c1ccc(SC2CCSc3ccccc3C2Sc2ccccc2)cc1` (stereo unspecified), for which the GI50 is > 100 µM (inactive) with KM-20L2; > 100 µM (inactive) with SNB-78; > 100 µM (inactive) with XF498; > 100 µM (inactive) in the assay on LXFL 529; > 10 µM (inactive) in the assay on M19-MEL; > 10 µM (inactive) in the assay with DMS-114. In addition, the GI50 in the assay with DMS-273 was > 100 µM (inactive).

On to `CC(C)(C)C[P+](C)(C)c1ccccc1`, for which the GI50 with KM-20L2 was 83 µM (inactive); with SNB-78, > 100 µM (inactive); with LXFL 529, > 100 µM (inactive); with HOP-18 it was > 100 µM (inactive); with M19-MEL, > 100 µM (inactive); in the assay with DMS-114, > 100 µM (inactive). Moreover, the GI50 in the assay on DMS-273 and with RXF 631 was > 100 µM (inactive) each time.

Take `COC1=C(C)C(=O)C2=C(C1=O)C1C3CC4=C(C(=O)C(OC)=C(C)C4=O)C(CNC(=O)C(C)O)N3C(C#N)C(C2)N1C` (stereo unspecified): the GI50 with KM-20L2, in the assay on SNB-78, in the assay with XF498, in the assay with HOP-18, in the assay on M19-MEL and in the assay on DMS-114 was < 0.01 µM (active) throughout. In addition, the GI50 in the assay with DMS-273 was < 0.01 µM (active).

With `Cc1ccc(-n2c(=S)[nH]c3ccc(Br)cc3c2=O)cc1`, the GI50 in the assay with KM-20L2, with XF498, in the assay on LXFL 529, in the assay on HOP-18, in the assay on M19-MEL and in the assay on DMS-114 was > 100 µM (inactive) each time.

As to `CCOC(=O)C1=C(C(=O)OCC)C2(c3ccccc3)N(O1)c1ccccc1C2(C)C` (stereo unspecified), the GI50 in the assay on KM-20L2 was 39.1 µM (inactive); in the assay with SNB-78, 54.8 µM (inactive); in the assay with LXFL 529, 36.1 µM (inactive); with HOP-18, 23.3 µM (inactive); in the assay on M19-MEL, 70.8 µM (inactive).

Regarding `O=C1C2c3[nH]c4ccccc4c3C3CCC(c4ccccc4)CC3C2C(=O)N1c1ccccc1` (stereo unspecified), the GI50 in the assay with SNB-78 is 28.6 µM (inactive); in the assay on XF498, > 100 µM (inactive); with LXFL 529, > 100 µM (inactive); in the assay on HOP-18, > 100 µM (inactive); in the assay on M19-MEL, > 100 µM (inactive); in the assay on DMS-114, > 100 µM (inactive). Moreover, the GI50 in the assay with DMS-273 is > 100 µM (inactive).

Regarding `c1nc(N2CC2)c2cnn(C3CCCCO3)c2n1` (stereo unspecified), the GI50 in the assay on KM-20L2, with SNB-78, in the assay with XF498, in the assay with LXFL 529, with M19-MEL and in the assay on DMS-114 was > 100 µM (inactive) throughout. Besides, the GI50 in the assay on DMS-273 was > 100 µM (inactive).

`O=C(CCc1nnc(S)[nH]1)Nc1ccc(Cl)c(Cl)c1`: the GI50 with KM-20L2 was 6.12 µM (inactive); in the assay with SNB-78, > 100 µM (inactive); in the assay on XF498 it was > 100 µM (inactive); with LXFL 529, 13.2 µM (inactive); in the assay with HOP-18 it was > 100 µM (inactive); with M19-MEL, 43.6 µM (inactive). For the same molecule, the GI50 was 23.5 µM (inactive) in the assay on DMS-114, 19.8 µM (inactive) in the assay on DMS-273 and 72.3 µM (inactive) in the assay on RXF 631.

For the molecule `CC[n+]1c(/C=C/c2ccc(N(CCCl)CCCl)cc2)ccc2cc(Br)ccc21`, the GI50 was 3.13 µM (inactive) in the assay on KM-20L2; 0.76 µM (active) in the assay with SNB-78; 0.275 µM (active) with XF498; 0.67 µM (active) in the assay with LXFL 529; 6.14 µM (inactive) in the assay on HOP-18; 1.2 µM (inactive) with M19-MEL. Also, the values for the GI50 in the assay on DMS-114, in the assay with DMS-273 and in the assay with RXF 631 were 0.662 µM (active), 244 µM (inactive) and 630 µM (inactive), respectively.

For the molecule `CC(=O)O[C@@]12CO[C@@H]1CC(O)[C@@]1(C)C(=O)[C@H](O)C3=C(C)C(O)C[C@@](O)(C(OC(=O)c4ccccc4)C12)C3(C)C` (stereo partly specified), the GI50 with KM-20L2 was 0.679 µM (active); with SNB-78, 15.5 µM (inactive); in the assay on XF498, 2.07 µM (inactive); in the assay with M19-MEL, 12.8 µM (inactive); with DMS-273, 0.472 µM (active).

In the case of `C=CC[P@]1(=O)O[C@H](c2ccccc2)C(C)N1C(C)C` (stereo partly specified), the GI50 in the assay on KM-20L2, in the assay with XF498, with LXFL 529, in the assay with HOP-18, in the assay on M19-MEL and with DMS-114 was > 100 µM (inactive) each time. In addition, in the assay with RXF 631, the GI50 was > 100 µM (inactive).
